The results in this text go back to BindingDB's records for doi:10.1021/jm1001698 (Institute of Health Sciences, 2010).

The experiment deals with Bcl-xL (Homo sapiens). Kind of experiment: Displacement of FITC-labeled Bak-BH3 peptide from Bcl-XL after 1 hr by fluorescence polarization assay. On the technique in general: Polarisation of emitted light reports the rotation of a fluorescent probe.

On to `C=c1c(-c2c(O)c3c(C=N[C@@H]4C(=O)N5[C@@H]4SC(C)(C)[C@@H]5C(=O)O)c(O)c(O)c(=C(C)C)c3c(O)c2=C)c(O)c2c(C=N[C@@H]3C(=O)N4[C@@H]3SC(C)(C)[C@@H]4C(=O)O)c(O)c(O)c(=C(C)C)c2c1O` [sodium(2S,2'S,5R,5'R,6R,6'R)-6,6'-((1E,1'E)-(6,6',7,7'-tetrahydroxy-5,5'-diisopropyl-3,3'-dimethyl-1,1',4,4'-tetraoxo-1,1',4,4'-tetrahydro-2,2'-binaphthyl-8,8'-diyl)bis(methan-1-yl-1-ylidene)bis(azan-1-yl-1-ylidene))bis(3,3-dimethyl-7-oxo-4-thia-1-azabicyclo[3.2.0]heptane-2-carboxylate)], for which the IC50 was 1.76 µM.

Broadly, the IC50 is the concentration that inhibits the measured activity by half.
